Counter-ions that a name gives are not always drawn. Like-named read-outs stand apart in the source and are kept apart here.
System: subjects with myelofibrosis
Conditions: for Discontinuation because of adverse event, number of subjects / Discontinued, subjects n (%): Table 1
[1] = Example 1, patients who started at =680 mg
[2] = Example 1, started at =680 mg, 24 patients not requiring RBC transfusions at baseline
[3] = MTD cohort, at least possibly related
[4] = Table 3: treatment-emergent hematologic toxicity, MTD subjects (N = 40)
[5] = Table 4: treatment-emergent non-hematologic AE, MTD subjects (N = 40)
[6] = Table 5: treatment-emergent non-hematologic laboratory finding, MTD subjects (N = 40)

## Cc1cnc(Nc2ccc(OCCN3CCCC3)cc2)nc1Nc1cccc(S(=O)(=O)NC(C)(C)C)c1 [TG101348, N-tert-butyl-3-[(5-methyl-2-{[4-(2-pyrrolidin-1-ylethoxy)phenyl]amino}pyrimidin-4-yl)amino]benzenesulfonamide dihydrochloride monohydrate]
800 mg/day
  Patients who experienced DLT: 2 of 6
Eight of 43 subjects
  Subjects who discontinued treatment during the extension study: 19%
Example 1, 18 of 59 patients, median follow-up 12 weeks
  Patients who discontinued treatment: 31%
[1]
  Asymptomatic hyperlipasemia, patients: 33%
  Gr1/2 serum creatinine elevation, patients: 38%
  Gr3 diarrhea, number of patients: 3
  Gr3 nausea, number of patients: 1
  Gr3 neutropenia, patients: 15%
  Gr3 thrombocytopenia, patients: 20%
  Gr3 vomiting, number of patients: 1
  Gr4 neutropenia, patients: 0%
  Gr4 thrombocytopenia, patients: 10%
  Grade 1/2 transaminitis, patients: 38%
[2]
  Grade 3 anemia, patients: 42%
  Grade 4 anemia, patients: 8%
Example 1 background
  Grade 3/4 neutropenia, patients: 14%
  Grade 3/4 thrombocytopenia, patients: 25%
Example 2 conclusions
  Long-term toxicities: no long-term toxicities
Fifteen of 59 subjects
  Subjects who discontinued treatment during the first 6 cycles: 25%
MF-TG101348-001, subject 101-040, starting 680, termination 520 mg/day, 24 days, possibly related
  Reason for discontinuation of study: Adverse events - diarrhea (grade 3; possibly
MF-TG101348-001, subject 102-019, starting dose 520, dose at termination 520 mg/day, 42 days of treatment, probably related
  Reason for discontinuation of study: Adverse event - neutropenia (grade 3;
MF-TG101348-001, subject 104-027, starting 800, termination 680 mg/day, 77 days, possibly related
  Reason for discontinuation of study: Adverse event - thrombocytopenia (grade 4;
MF-TG101348-001, subject 104-029, starting 680, termination 680 mg/day, 44 days, not related, also embolic stroke (grade 3; not related)
  Reason for discontinuation of study: Adverse event - endocarditis (grade 3; not
MF-TG101348-001, subject 105-059, starting 680, termination 360 mg/day, 27 days, possibly related
  Reason for discontinuation of study: Adverse event - cardiac arrest (grade 5;
MF-TG101348-001, subject 106-028, starting 800, termination 520 mg/day, 44 days, possibly related
  Reason for discontinuation of study: Adverse event - thrombocytopenia (grade 4;
MF-TG101348-001 and -002
  Subjects with serious adverse events considered at least possibly related to TG101348: 8 subjects
MF-TG101348-002, subject 101-047, starting 680, termination 320 mg/day, cumulative 233 days, possibly related
  Reason for discontinuation of study: Adverse event - elevated creatinine (grade 2;
MF-TG101348-002, subject 104-015, starting 360, termination 520 mg/day, cumulative 257 days, possibly related
  Reason for discontinuation of study: Adverse event - depression (grade 3;
MF-TG101348-002, subject 104-017, starting 520, termination 200 mg/day, cumulative 309 days
  Reason for discontinuation of study: Investigator discretion - disease progression
MF-TG101348-002, subject 105-013, starting 240, termination 360 mg/day, cumulative 321 days, probably related
  Reason for discontinuation of study: Adverse event - thrombocytopenia (grade 4;
MTD cohort
  Grades 3/4 asymptomatic increase in ALT, subjects: 8%
  Grades 3/4 asymptomatic increase in AST, subjects: 3%
  Grades 3/4 asymptomatic increase in serum lipase, subjects: 15%
  Grades 3/4 increase in alkaline phosphatase, subjects: 0%
  Grades 3/4 increase in creatinine, subjects: 0%
MTD cohort (n=40), 28 subjects
  Subjects who required dose-reduction during the first 6 cycles: 70%
[3]
  Grade 3 diarrhea, subjects: 13%
  Grade 3 nausea, subjects: 5%
  Grade 3 vomiting, subjects: 3%
MTD cohort, first 6 cycles
  Dose-reduction, primary reason ALT elevation: 7.5%
  Dose-reduction, primary reason amylase/lipase elevation: 10%
  Dose-reduction, primary reason cytopenia(s): 20%
  Dose-reduction, primary reason gastrointestinal adverse events: 12.5%
  Dose-reduction, primary reason investigator discretion: 7.5%
  Dose-reduction, primary reason other adverse events: 12.5%
Phase I study, myelofibrosis
  Maximum tolerated dose (MTD): 680 mg
MTD (40 enrolled)
  Discontinuation because of adverse event, number of subjects: 5
MTD (initiated at 680 or 800 mg/day; 40 enrolled)
  Discontinued, subjects n (%): 11 (28%)
Overall (59 enrolled)
  Discontinuation because of adverse event, number of subjects: 6
  Discontinued, subjects n (%): 15 (25%)
Table 3: MTD subjects not transfusion dependent at baseline (N = 24), transfusion on at least 2 occasions for Hb <10 g/dL
  Anemia: New Transfusion Requirement on Study, subjects n (%): 16 (67%)
[4]
  Neutropenia Grade 3, subjects n (%): 6 (15%)
  Neutropenia Grade 4, subjects n (%): 0
  Thrombocytopenia Grade 3, subjects n (%): 8 (20%)
  Thrombocytopenia Grade 4, subjects n (%): 5 (13%)
[5]
  Abdominal pain Grade 1, subjects n (%): 5 (13%)
  Abdominal pain Grade 2, subjects n (%): 0
  Abdominal pain Grade 3, subjects n (%): 0
  Abdominal pain Grade 4, subjects n (%): 0
  Anorexia Grade 1, subjects n (%): 7 (18%)
  Anorexia Grade 2, subjects n (%): 0
  Anorexia Grade 3, subjects n (%): 1 (3%)
  Anorexia Grade 4, subjects n (%): 0
  Constipation Grade 1, subjects n (%): 6 (15%)
  Constipation Grade 2, subjects n (%): 1 (3%)
  Constipation Grade 3, subjects n (%): 0
  Constipation Grade 4, subjects n (%): 0
  Contusion Grade 1, subjects n (%): 5 (13%)
  Contusion Grade 2, subjects n (%): 0
  Contusion Grade 3, subjects n (%): 0
  Contusion Grade 4, subjects n (%): 0
  Diarrhea Grade 1, subjects n (%): 21 (53%)
  Diarrhea Grade 2, subjects n (%): 4 (10%)
  Diarrhea Grade 3, subjects n (%): 5 (13%)
  Diarrhea Grade 4, subjects n (%): 0
  Edema peripheral Grade 1, subjects n (%): 7 (18%)
  Edema peripheral Grade 2, subjects n (%): 1 (3%)
  Edema peripheral Grade 3, subjects n (%): 0
  Edema peripheral Grade 4, subjects n (%): 0
  Fatigue Grade 1, subjects n (%): 2 (5%)
  Fatigue Grade 2, subjects n (%): 3 (8%)
  Fatigue Grade 3, subjects n (%): 1 (3%)
  Fatigue Grade 4, subjects n (%): 0
  Headache Grade 1, subjects n (%): 4 (10%)
  Headache Grade 2, subjects n (%): 1 (3%)
  Headache Grade 3, subjects n (%): 0
  Headache Grade 4, subjects n (%): 0
  Nausea Grade 1, subjects n (%): 20 (50%)
  Nausea Grade 2, subjects n (%): 6 (15%)
  Nausea Grade 3, subjects n (%): 2 (5%)
  Nausea Grade 4, subjects n (%): 0
  Proteinuria Grade 1, subjects n (%): 2 (5%)
  Proteinuria Grade 2, subjects n (%): 3 (8%)
  Proteinuria Grade 3, subjects n (%): 0
  Proteinuria Grade 4, subjects n (%): 0
  Vomiting Grade 1, subjects n (%): 20 (50%)
  Vomiting Grade 2, subjects n (%): 7 (18%)
  Vomiting Grade 3, subjects n (%): 1 (3%)
  Vomiting Grade 4, subjects n (%): 0
[6]
  ALT increased Grade 2, subjects n (%): 8 (20%)
  ALT increased Grade 3, subjects n (%): 2 (5%)
  ALT increased Grade 4, subjects n (%): 0
  AST increased Grade 2, subjects n (%): 5 (13%)
  AST increased Grade 3, subjects n (%): 1 (3%)
  AST increased Grade 4, subjects n (%): 0
  Creatinine increased Grade 2, subjects n (%): 11 (28%)
  Creatinine increased Grade 3, subjects n (%): 0
  Creatinine increased Grade 4, subjects n (%): 0
  Hyperamylasemia Grade 2, subjects n (%): 0
  Hyperamylasemia Grade 3, subjects n (%): 1 (3%)
  Hyperamylasemia Grade 4, subjects n (%): 1 (3%)
  Hyperkalemia Grade 2, subjects n (%): 3 (8%)
  Hyperkalemia Grade 3, subjects n (%): 2 (5%)

— US20130252988A1, “COMPOSITIONS AND METHODS FOR TREATING MYELOFIBROSIS” (TARGEGEN, INC., priority 2010, published 2013)
